Data from patent US20250289812A1, “COMPOUND FOR TREATING THROMBOTIC DISEASES” (SHANGHAI INSTITUTE OF MATERIA MEDICA, CHINESE ACADEMY OF …, priority 2020, published 2025).

Experiments:
[1] = target: Src kinase SH3 domain protein (Homo sapiens (Human), UniProt P12931); experiment: Surface plasmon resonance (SPR) determination of dissociation constants with SH3 protein; type: binding; conditions: SH3 protein coupled to CM5 chip
Procedure: 1. Experimental method: Surface plasmon resonance test was carried out on BIACORE T200 instrument (GE Company). Fresh purified grade Src kinase SH3 domain protein (concentration 2 mg/ml) was diluted to 0.1 mg/ml with 10 mM CH3COONa (pH 4.2) and then SH3 protein was coupled to the CM5 chip by standard amino coupling methods. The compounds of the invention were diluted in a gradient using a buffer solution (20 mM Tris-HCl, PH 8.0, 100 mM NaCl) for 60 seconds and dissociated for 120 seconds at a flow rate of […], respectively. The changes in response values over time were recorded and analyzed by the BIA Evaluation Software (GE Healthcare) program to obtain the dissociation constants KD for the different compounds with SH3 protein.
2. Experimental results and conclusions: The dissociation constants KD of different compounds and SH3 protein were described in Table 2, and the surface plasmon resonance (SPR) experimental results of some compounds were shown in FIG. 1.

[2] = system: platelets on solid phase fibrinogen; experiment: Effect of compound on platelet stretching on solid phase fibrinogen; type: cell-based; conditions: 1 h, washed platelets, incubated 60 min at 37° C., read-out: Concentration range for compounds that inhibit platelet stretching on fibrinogen
Procedure: 1. Experimental method: Firstly, 50 μl fibrinogen (0.1M, diluted with pH 8.3 sodium bicarbonate, 20 μg/ml) was added to 96-well plate, and coated overnight at 4° C. After being washed by PBS for 3 times in the morning, sealed with bovine serum albumin (20 mg/ml) at 37° C. for 60 min, then 100 μl of washed platelet suspension was taken, and added into compounds in each group to make the final concentration 250 μM, and incubated at 37° C. for 60 min. 50 μl of incubated platelets were added to 96-well plate, adhered in a temperature box at 37° C. for 60 min, unadhered platelets were removed by PBS washing for 3 times, and adhered platelets were stably fixed with 4% paraformaldehyde, and washed with PBS for 3 times. Then the platelet membrane was perforated with 0.5% Triton X-100, and then the platelet was stained with 0.5 μg/ml phalloidin-rhodamine for 60 min at 37° C. and washed 3 times (10 min each) with PBS.
2. Experimental results and conclusions: The concentration of different compounds on platelet stretching on fibrinogen was shown in Table 3, and the inhibitory effect of some compounds on platelet stretching was shown in FIG. 2.

Sequence of Src kinase SH3 domain protein (P12931 whole entry, looked up, the tested form may be a part): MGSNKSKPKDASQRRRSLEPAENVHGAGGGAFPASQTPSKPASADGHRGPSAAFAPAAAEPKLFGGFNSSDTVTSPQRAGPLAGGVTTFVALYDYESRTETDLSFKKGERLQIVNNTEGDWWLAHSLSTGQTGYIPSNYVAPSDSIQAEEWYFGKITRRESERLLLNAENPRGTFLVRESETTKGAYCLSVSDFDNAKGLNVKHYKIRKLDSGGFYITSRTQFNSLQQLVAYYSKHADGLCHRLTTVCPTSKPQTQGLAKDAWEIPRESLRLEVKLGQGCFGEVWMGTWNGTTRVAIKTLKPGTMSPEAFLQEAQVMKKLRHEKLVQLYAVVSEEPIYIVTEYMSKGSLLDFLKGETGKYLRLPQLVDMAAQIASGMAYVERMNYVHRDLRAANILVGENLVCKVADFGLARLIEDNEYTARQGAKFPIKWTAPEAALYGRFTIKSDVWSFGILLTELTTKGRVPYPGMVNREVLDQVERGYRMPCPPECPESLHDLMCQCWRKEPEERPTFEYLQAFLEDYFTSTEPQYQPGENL

| Compound | Kd [1] | minimal effective concentration [2] |
| --- | --- | --- |
| CCOC(=O)c1c(CNC(=N)N)n(C)c2ccc(OC)nc12 [SYY-C001] | < 1000 nM | 10 to 100 µM |
| CCOC(=O)c1c(CNC(=N)N)n(C)c2ncccc12 [SYY-C002] | 1000 to 10000 nM | 100 to 250 µM |
| CCOC(=O)c1c(CNC(=N)N)n(C)c2ncc(OC)cc12 [SYY-C003] | < 1000 nM | 10 to 100 µM |
| COc1ccc2c(n1)c(C#N)c(CNC(=N)N)n2C [SYY-C004] | 1000 to 10000 nM | 100 to 250 µM |
| COc1ccc2c(n1)c(C(N)=O)c(CNC(=N)N)n2C [SYY-C005] | 1000 to 10000 nM | 100 to 250 µM |
| CCOC(=O)c1c(CNC(=N)N)n(C)c2ccc(O)nc12 [SYY-C006] | < 1000 nM | 10 to 100 µM |
| CCOC(=O)c1c(CNC(=N)N)n(C)c2ccc(OC3CCCC3)nc12 [SYY-C007] | < 1000 nM | 10 to 100 µM |
| CCOC(=O)c1c(CNC(=N)N)n(C)c2cc(Br)c(OC3CCCC3)nc12 [SYY-C008] | 10000 to 100000 nM | 100 to 250 µM |
| CCOC(=O)c1c(CNC(=N)N)n(C)c2ncc(O)cc12 [SYY-C009] | < 1000 nM | 10 to 100 µM |
| CCOC(=O)c1c(CNC(=N)N)n(C)c2ncc(OC3CCCC3)cc12 [SYY-C010] | 10000 to 100000 nM | 10 to 100 µM |
| CCOC(=O)c1c(CNC(=N)N)n(C)c2cc(Br)cnc12 [SYY-C014] | < 1000 nM | 10 to 100 µM |
| CCOC(=O)c1c(CNC(=N)N)n(C)c2cc(Br)ccc12 [SYY-C015] | < 1000 nM | 10 to 100 µM |
| CCOC(=O)c1c(CNC(=N)N)n(C)c2ccccc12 [SYY-C016] | 10000 to 100000 nM | 10 to 100 µM |
| CCOC(=O)c1c(CNC(=N)N)n(C)c2ccc(Br)cc12 [SYY-C017] | < 1000 nM | 10 to 100 µM |
| CCOC(=O)c1c(CNC(=N)N)n(C)c2nc(Cl)ccc12 [SYY-C020] | 1000 to 10000 nM | 100 to 250 µM |
| CCOC(=O)c1c(CNC(=N)N)n(C)c2cc(Br)ncc12 [SYY-C022] | 1000 to 10000 nM | 100 to 250 µM |
| CCOC(=O)c1c(CNC(=N)N)n(C)c2cc(-c3ccccc3)ccc12 [SYY-C023] | 10000 to 100000 nM | 10 to 100 µM |
| CCOC(=O)c1c(CNC(=N)N)n(C)c2cc(C3=CCCC3)ccc12 [SYY-C024] | < 1000 nM | 10 to 100 µM |
| CCOC(=O)c1c(CNC(=N)N)n(C)c2cc(C3CCCC3)ccc12 [SYY-C025] | < 1000 nM | 10 to 100 µM |
| CCOC(=O)c1c(CNC(=N)N)n(C)c2cccnc12 [SYY-C026] | 1000 to 10000 nM | 100 to 250 µM |
| CCOC(=O)c1c(CNC(=N)N)n(C)c2ccc(-c3ccccc3)cc12 [SYY-C028] | < 1000 nM | 10 to 100 µM |

| Compound | Kd [1] | minimal effective concentration [2] |
| --- | --- | --- |
| CCOC(=O)c1c(CNC(=N)N)n(C)c2c1ccc1ccccc12 [SYY-C029] | < 1000 nM | 10 to 100 µM |
| CCOC(=O)c1c(CNC(=N)N)n(-c2ccccc2)c2ccccc12 [SYY-C030] | 10000 to 100000 nM | 100 to 250 µM |
| CCOC(=O)c1c(CSC(=N)N)n(-c2ccccc2)c2ccccc12 [SYY-C031] | < 1000 nM | 10 to 100 µM |
| CCNC(=N)NCc1c(C(=O)OCC)c2nc(OC)ccc2n1C [SYY-C032] | < 1000 nM | 10 to 100 µM |
| CCOC(=O)c1c(CNC(=N)N)n(C)c2ccncc12 [SYY-C034] | 1000 to 10000 nM | 100 to 250 µM |
| CCOC(=O)c1c(CNC(=N)N)n(C)c2cnccc12 [SYY-C035] | 1000 to 10000 nM | 100 to 250 µM |
| COc1cnc2c(c1)c(C(N)=O)c(CNC(=N)N)n2C [SYY-C036] | – | 10 to 100 µM |
| CCOC(=O)c1c(CNC(=N)N)n(C)c2ccc(C3=CCCC3)cc12 [SYY-C037] | 1000 to 10000 nM | 100 to 250 µM |
| CCOC(=O)c1c(CNC(=N)N)n(C)c2ccc(C3CCCC3)cc12 [SYY-C039] | < 1000 nM | 10 to 100 µM |
| CCOC(=O)c1c(CNC(=N)N)n(C)c2cc(-c3cccc4ccccc34)ccc12 [SYY-C040] | < 1000 nM | 10 to 100 µM |
| CCOC(=O)c1c(CNC(=N)N)n(C)c2cc(-c3ccc4ccccc4c3)ccc12 [SYY-C041] | 10000 to 100000 nM | 100 to 250 µM |
| CCOC(=O)c1c(CSC(=N)N)n(C)c2cc(-c3cccc4ccccc34)ccc12 [SYY-C042] | 1000 to 10000 nM | 10 to 100 µM |
| CCOC(=O)c1c(CSC(=N)N)n(C)c2cc(-c3ccc4ccccc4c3)ccc12 [SYY-C043] | 1000 to 10000 nM | 100 to 250 µM |
| CCOC(=O)c1c(CSC(=N)N)n(C)c2cc(Cc3ccccc3)ccc12 [SYY-C045] | < 1000 nM | 10 to 100 µM |
| CCOC(=O)c1c(CNC(=N)N)n(C)c2cc(C3=CCCCCC3)ccc12 [SYY-C046] | 10000 to 100000 nM | 100 to 250 µM |
| CCOC(=O)c1c(CNC(=N)N)n(C)c2cc(C3CCCCCC3)ccc12 [SYY-C047] | < 1000 nM | 10 to 100 µM |
| CCOC(=O)c1c(CNC(=N)N)n(C)c2cc(C3=CCCCC3)ccc12 [SYY-C048] | 10000 to 100000 nM | 10 to 100 µM |
| CCOC(=O)c1c(CNC(=N)N)n(C)c2cc(C3CCCCC3)ccc12 [SYY-C049] | < 1000 nM | 10 to 100 µM |
| CCOC(=O)c1c(CSC(=N)N)n(C)c2cc(C3CCCCC3)ccc12 [SYY-C050] | < 1000 nM | 10 to 100 µM |
| CCOC(=O)c1c(CSC(=N)N)n(C)c2cc(C3=CCCCC3)ccc12 [SYY-C051] | 1000 to 10000 nM | 100 to 250 µM |
| CCOC(=O)c1c(CSC(=N)N)n(C)c2cc(C3=CCCCCC3)ccc12 [SYY-C052] | 1000 to 10000 nM | 100 to 250 µM |

| Compound | Kd [1] | minimal effective concentration [2] |
| --- | --- | --- |
| CCOC(=O)c1c(CSC(=N)N)n(C)c2cc(C3CCCCCC3)ccc12 [SYY-C053] | < 1000 nM | 10 to 100 µM |
| CCOC(=O)c1c(CNC(=N)N)n(C)c2cc(OC3CCCC3)ccc12 [SYY-C054] | < 1000 nM | 10 to 100 µM |
| CCOC(=O)c1c(CSC(=N)N)n(C)c2cc(C3CCCc4ccccc43)ccc12 (stereo not shown) [SYY-C055] | < 1000 nM | 10 to 100 µM |
| CCOC(=O)c1c(CSC(=N)N)n(C)c2cc(C3CCC(F)(F)CC3)ccc12 [SYY-C056] | 10000 to 100000 nM | 100 to 250 µM |
| CCOC(=O)c1c(CNC(=N)N)n(C)c2cc(C3CCCc4ccccc43)ccc12 (stereo not shown) [SYY-C057] | < 1000 nM | 10 to 100 µM |
| CCOC(=O)c1c(CSC(=N)N)n(C)c2cc(OC3CCCC3)ccc12 [SYY-C058] | 10000 to 100000 nM | 100 to 250 µM |
| CCOC(=O)c1c(CSC(=N)N)n(C)c2cc(Oc3ccccc3)ccc12 [SYY-C059] | < 1000 nM | 10 to 100 µM |
| CCOC(=O)c1c(CNC(=N)N)n(C)c2cc(C3CCC(F)(F)CC3)ccc12 [SYY-C060] | < 1000 nM | 10 to 100 µM |
| CCOC(=O)c1c(CSC(=N)N)n(C)c2cc(OC3CCCCC3)ccc12 [SYY-C061] | 10000 to 100000 nM | 10 to 100 µM |
| CCOC(=O)c1c(CSC(=N)N)n(C)c2ccc3ccccc3c12 [SYY-C062] | < 1000 nM | 10 to 100 µM |
| CCOC(=O)c1c(CSC(=N)N)n(C)c2cc(C3CC4CCC3C4)ccc12 (stereo not shown) [SYY-C063] | < 1000 nM | 10 to 100 µM |
| CCOC(=O)c1c(CNC(=N)N)n(C)c2ccc(-c3ccc4ccccc4c3)cc12 [SYY-C065] | 10000 to 100000 nM | 10 to 100 µM |
| CCOC(=O)c1c(CNC(=N)N)n(C)c2cc(-c3ccnc4ccccc34)ccc12 [SYY-C066] | < 1000 nM | 10 to 100 µM |
| CCOC(=O)c1c(CNC(=N)N)n(C)c2cc(-c3cccc4ncccc34)ccc12 [SYY-C067] | < 1000 nM | 10 to 100 µM |
| CCOC(=O)c1c(CNC(=N)N)n(C)c2cc(C3=CCCc4ccccc43)ccc12 [SYY-C068] | 1000 to 10000 nM | 100 to 250 µM |
| CCOC(=O)c1c(CNC(=N)N)n(C)c2cc(C3CC4CCC3C4)ccc12 (stereo not shown) [SYY-C069] | – | 10 to 100 µM |
| CCOC(=O)c1c(CNC(=N)N)n(C)c2ccc(-c3cccc4ccccc34)cc12 [SYY-C070] | < 1000 nM | 10 to 100 µM |
| CCOC(=O)c1c(CNC(=N)N)n(C)c2ccc(C3=CCCc4ccccc43)cc12 [SYY-C071] | < 1000 nM | 10 to 100 µM |
| CCOC(=O)c1c(CNC(=N)N)n(C)c2cc(-c3ccc(C)c4ccccc34)ccc12 [SYY-C072] | 1000 to 10000 nM | 10 to 100 µM |
| CCOC(=O)c1c(CNC(=N)N)n(C)c2cc(-c3cccc4ccc(F)cc34)ccc12 [SYY-C094] | < 1000 nM | – |
